From patent US11883526B2 (priority 2019, dated 2024)
Several values for one entry are separate records, joined by “and”; a condition that tells them apart may be missing. Identical values can stand only once. Entries after “also recorded” stand apart in the source; their conditions may differ. Counter-ions that a name gives are not always drawn. Like-named read-outs stand apart in the source and are kept apart here. Marks after values point to notes of the source that are not given here.

Key:
[1] = Excerpt: This example provides an LC-MS/MS method for the determination of ketamine and norketamine in sodium heparin human plasma using ketamine-d4 and norketamine-d4 as the respective internal standards (IS).
[2] = test system: adult female Sprague Dawley rats; conditions: 3 hours after a single intraperitoneal injection; cited from earlier work
[3] = test system: female Sprague-Dawley rats; experiment: Single dose neurotoxicity study: mortality, clinical observations, body weight; type: in vivo, rat; conditions: for Clinical observation incidence: Abnormal respiration / Clinical observation incidence: Ataxia / Clinical observation incidence: Catalepsy / Clinical observation incidence: Chromodacryorrhea / Clinical observation incidence: Decreased general activity / Clinical observation incidence: Decubitus / Clinical observation incidence: Increased general activity / Clinical observation incidence: Narrowed palpebral fissure / Clinical observation incidence: Piloerection / Clinical observation incidence: Salivation (out of normal) / Clinical observation incidence: audible respiration / Clinical observation incidence: bradypnoea: single dose
Method: The injection volume was 5 mL/kg.
(§1) Body weight and body weight gain were measured daily.

[4] = test system: female Sprague-Dawley rats; experiment: Single dose neurotoxicity study: brain histopathology (neuronal necrosis in PCG/RSC); conditions: single dose up to 72 mg, 48 or 96 hours post-dose; hydrochloride
Method: In order to prepare for brain histopathology examination, all main study animals were perfused at necropsy. Prior to the perfusion, rats were anesthetized with isoflurane. After injection of 0.1 ml heparin, the blood of the rat was flushed out with a physiological saline solution by intraarterial insertion of a needle in the abdominal aorta. Thereafter the rat was perfused with glutaraldehyde 3% in potassium phosphate 0.09M and 1.4% sucrose. Due to logistic constraints at maximum 30 animals could undergo the whole-body perfusion procedure on a given day. Therefore, a staggered start of treatment was applied to all 5 groups of main study animals. Consequently, subgroups of 4 main study animals of the vehicle- and 36 and 54 mg-dosed groups, and 5 main study animals of the 72 mg-dosed and positive control groups, were dosed on 6 consecutive days, respectively.
The vehicle control, positive control, and esketamine HCl-dosed animals were sacrificed at either 48 hours (i.e., the first 12 or 15 rats per group) or 96 hours after the dose administration time (i.e., the last 12 or 15 rats per group). The brain tissue of the vehicle control-, positive control- and esketamine HCl-treated rats were processed at the same time and handled in the same way in batches of 4 or 5 animals per group.
Brain tissue was sampled and processed routinely. […]

[5] = test system: female Sprague-Dawley rats; experiment: 14-day repeated dose neurotoxicity study: mortality, clinical observations, body weight; type: in vivo, rat; conditions: for Clinical observation incidence: Abnormal respiration / Clinical observation incidence: Ataxia / Clinical observation incidence: Chromodacryorrhea / Clinical observation incidence: Decreased general activity / Clinical observation incidence: Decubitus / Clinical observation incidence: Increased general activity / Clinical observation incidence: Salivation (out of normal) / Clinical observation incidence: audible respiration / Clinical observation incidence: bradypnoea: 14 days
Method: as §1

[6] = Solubility of esketamine HCl; conditions: room temperature, pH 4.5, factor 1.15
Method: The clinical investigational product is an aqueous solution of the drug substance, esketamine hydrochloride (HCl). This formulation is administered intranasally to patients using a dual nasal spray device, which delivers one spray into each nostril. […] The formulation was stored at 37° C. for stability reasons until dosing.

[7] = test system: female Sprague-Dawley rats; experiment: 14-day repeated dose neurotoxicity study: brain histopathology (neuronal necrosis in PCG/RSC); conditions: up to 54 mg/day for 14 days, 48 hours after last instillation; hydrochloride
Method: Due to logistic constraints associated with the whole body perfusion procedure of the animals at necropsy, a staggered start was applied to the study. Consequently, all 5 groups of main study animals were divided into three subgroups of 4 animals each. For each of these subgroups treatment started on a different day. The perfusion procedure is the is the same as described for the single dose study.
All vehicle- and esketamine HCl-treated animals were sacrificed at 48 hours after the last instillation. […] The brain tissue of the vehicle control-, positive control- and esketamine HCl-treated rats were processed at the same time and handled in the same way in batches of 4 animals per group.
Brain tissue was sampled and processed routinely. The trimmed and embedded tissue was sectioned and stained with hematoxylin-eosin (HE). Histoprocessing and staining were carried out in three batches of 4 animals per group (each batch thus containing 4 animals from vehicle control-, positive control- and the three esketamine HCl-treated groups).
Histopathological examination was performed on 7 levels of brain tissue according to Bolon (2013. Toxicol. Pathol. 41(7), 1028-1048) from the vehicle control-, positive control-, and high dose esketamine HCl-treated groups in the single dose study, and in all groups in the repeated dose study.
The microscopic finding of neuronal necrosis in the PCG/RSC of the brain was graded unilaterally according to the number of necrotic neurons observed over the total length of the PCG/RSC structure visible in the tissue section (usually around 3-5 mm) utilizing the following criteria:

SMILES: CNC1(c2ccccc2Cl)CCCCC1=O (racemic) [ketamine, reference compound]
- QC sample freeze/thaw stability ([1]; freeze (−20° C.)/thaw (ice-water bath)): 3 freeze (−20° C.)/thaw (ice-water bath) cycles
- QC sample freeze/thaw stability ([1]; freeze (−20° C.)/thaw (room temperature)): 3 freeze (−20° C.)/thaw (room temperature) cycles
- QC sample long-term storage stability ([1]; human plasma QC sample at −20° C.): 1552 days at −20 °C
- QC sample bench-top stability ([1]; human plasma QC sample, room temperature): 68.5 hours at room temp
- Stock solution stability (spike solutions) ([1]; ketamine/norketamine spike solutions at −20° C.): 610 days at −20 °C for ketamine/norketamine spike solutions
- Processed sample stability ([1]; room temperature): 146.5 hours at room temperature
- Whole Blood Stability ([1]; room temperature and ice-water bath (0-4° C.)): 120 minutes at room temperature and in an ice-water bath (0-4° C.)
- Stock solution stability ([1]; stock solutions at room temperature under white light): 6 h
- Stock solution stability ([1]; stock solutions at −20° C.): 15100 h
- ED50 for induction of neuronal vacuolation in the PCG/RSC [2]: 47.5 mg/kg body weight

SMILES: CN[C@]1(c2ccccc2Cl)CCCCC1=O [esketamine HCl, (S)-2-(2-chlorophenyl)-2-(methylamino)cyclohexanone hydrochloride]
- duration of decreased activity, decubitus, bradypnea, catalepsy (anesthesia) after last instillation ([3]; 36 mg): 15 to 30 min
- duration of ataxia after decreased activity had subsided ([3]; 54 mg, hydrochloride): 1.5 to 3 h and 1 to 3 h
- duration of ataxia after decreased activity had subsided ([3]; 72 mg): ≥ 3 h
- Clinical observation incidence: Abnormal respiration ([3]; 36 mg intranasal): 22/24 ***
- Clinical observation incidence: Ataxia ([3]; 36 mg intranasal): 24/24 ***
- Clinical observation incidence: Catalepsy ([3]; 36 mg intranasal): 20/24 ***
- Clinical observation incidence: Chromodacryorrhea ([3]; 36 mg intranasal): 0/24
- Clinical observation incidence: Decreased general activity ([3]; 36 mg intranasal): 23/24 ***
- Clinical observation incidence: Decubitus ([3]; 36 mg intranasal): 23/24 ***
- Clinical observation incidence: Increased general activity ([3]; 36 mg intranasal): 24/24 ***
- Clinical observation incidence: Narrowed palpebral fissure ([3]; 36 mg intranasal): 7/24**
- Clinical observation incidence: Piloerection ([3]; 36 mg intranasal): 0/24
- Clinical observation incidence: Salivation (out of normal) ([3]; 36 mg intranasal): 23/24 ***
- Clinical observation incidence: audible respiration ([3]; 36 mg intranasal): 10/24 ***
- Clinical observation incidence: bradypnoea ([3]; 36 mg intranasal): 22/24 ***
- Clinical observation incidence: Abnormal respiration ([3]; 54 mg intranasal): 22/24 ***
- Clinical observation incidence: Ataxia ([3]; 54 mg intranasal): 24/24 ***
- Clinical observation incidence: Catalepsy ([3]; 54 mg intranasal): 23/24 ***
- Clinical observation incidence: Chromodacryorrhea ([3]; 54 mg intranasal): 0/24
- Clinical observation incidence: Decreased general activity ([3]; 54 mg intranasal): 23/24 ***
- Clinical observation incidence: Decubitus ([3]; 54 mg intranasal): 23/24 ***
- Clinical observation incidence: Increased general activity ([3]; 54 mg intranasal): 24/24 ***
- Clinical observation incidence: Narrowed palpebral fissure ([3]; 54 mg intranasal): 10/24 ***
- Clinical observation incidence: Piloerection ([3]; 54 mg intranasal): 0/24
- Clinical observation incidence: Salivation (out of normal) ([3]; 54 mg intranasal): 24/24 ***
- Clinical observation incidence: audible respiration ([3]; 54 mg intranasal): 3/24
- Clinical observation incidence: bradypnoea ([3]; 54 mg intranasal): 21/24 ***
- Clinical observation incidence: Abnormal respiration ([3]; 72 mg intranasal): 30/30 ***
- Clinical observation incidence: Catalepsy ([3]; 72 mg intranasal): 30/30 ***
- Clinical observation incidence: Chromodacryorrhea ([3]; 72 mg intranasal): 0/30
- Clinical observation incidence: Decreased general activity ([3]; 72 mg intranasal): 30/30 ***
- Clinical observation incidence: Decubitus ([3]; 72 mg intranasal): 30/30 ***
- Clinical observation incidence: Increased general activity ([3]; 72 mg intranasal): 29/30 ***
- Clinical observation incidence: Narrowed palpebral fissure ([3]; 72 mg intranasal): 22/30 ***
- Clinical observation incidence: Piloerection ([3]; 72 mg intranasal): 0/30
- Clinical observation incidence: Salivation (out of normal) ([3]; 72 mg intranasal): 29/30 ***
- Clinical observation incidence: audible respiration ([3]; 72 mg intranasal): 2/30
- Clinical observation incidence: bradypnoea ([3]; 72 mg intranasal): 30/30 ***
- mortality ([3]; single intranasal dose 72 mg, within 30 minutes): two main study animals and two satellite TK animals died
- mortality ([3]; single intranasal dose up to 54 mg): No test article related mortality
- histopathological lesions / neuronal necrosis in the brain [4]: no morphological evidence of neuronal degeneration; also recorded: absent; also recorded: No signs of neuronal necrosis; also recorded: no neuropathological lesions
- Clinical observation incidence: Abnormal respiration ([5]; 18 mg/day intranasal): 2/12
- Clinical observation incidence: Ataxia ([5]; 18 mg/day intranasal): 12/12***
- Clinical observation incidence: Chromodacryorrhea ([5]; 18 mg/day intranasal): 0/12
- Clinical observation incidence: Decreased general activity ([5]; 18 mg/day intranasal): 5/12
- Clinical observation incidence: Decubitus ([5]; 18 mg/day intranasal): 0/12
- Clinical observation incidence: Increased general activity ([5]; 18 mg/day intranasal): 12/12***
- Clinical observation incidence: Salivation (out of normal) ([5]; 18 mg/day intranasal): 12/12***
- Clinical observation incidence: audible respiration ([5]; 18 mg/day intranasal): 2/12
- Clinical observation incidence: bradypnoea ([5]; 18 mg/day intranasal): 0/12
- Clinical observation incidence: Abnormal respiration ([5]; 36 mg/day intranasal): 11/12***
- Clinical observation incidence: Ataxia ([5]; 36 mg/day intranasal): 12/12***
- Clinical observation incidence: Chromodacryorrhea ([5]; 36 mg/day intranasal): 0/12
- Clinical observation incidence: Decreased general activity ([5]; 36 mg/day intranasal): 12/12***
- Clinical observation incidence: Decubitus ([5]; 36 mg/day intranasal): 2/12
- Clinical observation incidence: Increased general activity ([5]; 36 mg/day intranasal): 12/12***
- Clinical observation incidence: Salivation (out of normal) ([5]; 36 mg/day intranasal): 12/12***
- Clinical observation incidence: audible respiration ([5]; 36 mg/day intranasal): 6/12**
- Clinical observation incidence: bradypnoea ([5]; 36 mg/day intranasal): 11/12***
- Clinical observation incidence: Abnormal respiration ([5]; 54 mg/day intranasal): 12/12***
- Clinical observation incidence: Ataxia ([5]; 54 mg/day intranasal): 12/12***
- Clinical observation incidence: Chromodacryorrhea ([5]; 54 mg/day intranasal): 0/12
- Clinical observation incidence: Decreased general activity ([5]; 54 mg/day intranasal): 12/12***
- Clinical observation incidence: Decubitus ([5]; 54 mg/day intranasal): 8/12***
- Clinical observation incidence: Increased general activity ([5]; 54 mg/day intranasal): 12/12***
- Clinical observation incidence: Salivation (out of normal) ([5]; 54 mg/day intranasal): 12/12***
- Clinical observation incidence: audible respiration ([5]; 54 mg/day intranasal): 6/12**
- Clinical observation incidence: bradypnoea ([5]; 54 mg/day intranasal): 12/12***
- mortality ([5]; up to 54 mg/day for 14 days): No test article related mortality
- maximum solubility expressed as base [6]: 180 mg esketamine base/mL
- histopathological lesions / neuronal necrosis in the brain [7]: absence of neuronal necrosis; also recorded: No histopathological lesions
